Results from ChEMBL document CHEMBL3352715, “Synthesis of new verapamil analogues and their evaluation in combination with rifampicin against Mycobacterium tuberculosis and molecular docking studies in the binding site of efflux protein Rv1258c” (2014).

How the values were obtained:
[1] = system: Mycobacterium tuberculosis; test: Inhibition of multidrug resistance efflux pump Rv1258c in Mycobacterium tuberculosis H37Rv assessed as rifampicin MIC99 by MABA method
[2] = system: Mycobacterium tuberculosis; test: Inhibition of multidrug resistance efflux pump Rv1258c in Mycobacterium tuberculosis H37Rv assessed as reduction in rifampicin MIC99 by MABA method
[3] = system: Mycobacterium tuberculosis; test: Inhibition of multidrug resistance efflux pump Rv1258c in Mycobacterium tuberculosis H37Rv assessed as potentiation of rifampicin-induced antimycobacterial activity by MABA method based Chequerboard synergy assay

COc1ccc(CCN(CCCC(C#N)(c2ccc(OC)c(OC)c2)C(C)C)C2CC2)cc1OC (centres undefined)
MIC99 [1]: 4.2 nM | fold change (FC) [2]: 2 | fractional inhibitory concentration index (FICI) [3]: 0.75

CCN(CCCC(C#N)(c1ccc(OC)c(OC)c1)C(C)C)CCc1ccc(OC)c(OC)c1 (centres undefined)
MIC99 [1]: 8.3 nM | fractional inhibitory concentration index (FICI) [3]: 1

CCCN(CCCC(C#N)(c1ccc(OC)c(OC)c1)C(C)C)CCc1ccc(OC)c(OC)c1 (centres undefined)
MIC99 [1]: 8.3 nM | fractional inhibitory concentration index (FICI) [3]: 0.78

COc1ccc(CCN(CCCC(C#N)(c2ccc(OC)c(OC)c2)C(C)C)Cc2ccccc2)cc1OC (centres undefined)
MIC99 [1]: 2.1 nM | fold change (FC) [2]: 4 | fractional inhibitory concentration index (FICI) [3]: 0.3

COc1ccc(N(C)CCCC(C#N)(c2ccc(OC)c(OC)c2)C(C)C)cc1OC (centres undefined)
MIC99 [1]: 8.3 nM

COc1ccc(CN(C)CCCC(C#N)(c2ccc(OC)c(OC)c2)C(C)C)cc1OC (centres undefined)
MIC99 [1]: 8.3 nM

COc1ccc(C(C#N)(CCCN2CCCCC2)C(C)C)cc1OC (centres undefined)
MIC99 [1]: 4.2 nM | fold change (FC) [2]: 2 | fractional inhibitory concentration index (FICI) [3]: 1

COc1ccc(C(C#N)(CCCN2CCOCC2)C(C)C)cc1OC (centres undefined)
MIC99 [1]: 8.3 nM | fractional inhibitory concentration index (FICI) [3]: 1.5

COc1ccc(C(C#N)(CCCN2CCC(O)CC2)C(C)C)cc1OC (centres undefined)
MIC99 [1]: 8.3 nM | fractional inhibitory concentration index (FICI) [3]: 1.5

COc1ccc(C(C#N)(CCCN2CCC(N3CCCCC3)CC2)C(C)C)cc1OC (centres undefined)
MIC99 [1]: 4.2 nM | fold change (FC) [2]: 2 | fractional inhibitory concentration index (FICI) [3]: 1

COc1ccc(C(C#N)(CCCN2CCC(O)(c3ccccc3)CC2)C(C)C)cc1OC (centres undefined)
MIC99 [1]: 4.2 nM | fold change (FC) [2]: 2 | fractional inhibitory concentration index (FICI) [3]: 1

COc1ccc(C(C#N)(CCCN2CCN(c3ccccc3)CC2)C(C)C)cc1OC (centres undefined)
MIC99 [1]: 4.2 nM | fold change (FC) [2]: 2 | fractional inhibitory concentration index (FICI) [3]: 0.75

COc1ccc(C(C#N)(CCCN2CCN(c3ccccn3)CC2)C(C)C)cc1OC (centres undefined)
MIC99 [1]: 2.1 nM | fold change (FC) [2]: 4 | fractional inhibitory concentration index (FICI) [3]: 0.75

COc1ccc(C(C#N)(CCCN2CCN(c3ccccc3F)CC2)C(C)C)cc1OC (centres undefined)
MIC99 [1]: 8.3 nM | fractional inhibitory concentration index (FICI) [3]: 1.5

COc1ccc(CCN(C)CCCC(C#N)c2ccc(OC)c(OC)c2)cc1OC (centres undefined)
MIC99 [1]: 4.2 nM | fold change (FC) [2]: 2 | fractional inhibitory concentration index (FICI) [3]: 1

COc1ccc(CCN(C)CCCC(C)(C#N)c2ccc(OC)c(OC)c2)cc1OC (centres undefined)
MIC99 [1]: 4.2 nM | fold change (FC) [2]: 2 | fractional inhibitory concentration index (FICI) [3]: 1

CCC(C#N)(CCCN(C)CCc1ccc(OC)c(OC)c1)c1ccc(OC)c(OC)c1 (centres undefined)
MIC99 [1]: 2.1 nM | fold change (FC) [2]: 4 | fractional inhibitory concentration index (FICI) [3]: 0.75

CCCC(C#N)(CCCN(C)CCc1ccc(OC)c(OC)c1)c1ccc(OC)c(OC)c1 (centres undefined)
MIC99 [1]: 2.1 nM | fold change (FC) [2]: 4 | fractional inhibitory concentration index (FICI) [3]: 0.75

COc1ccc(CCN(C)CCCC(C#N)(c2ccc(OC)c(OC)c2)C2CCCC2)cc1OC (centres undefined)
MIC99 [1]: 4.2 nM | fold change (FC) [2]: 2 | fractional inhibitory concentration index (FICI) [3]: 1

COc1ccc(CCN(C)CCCC(C#N)(c2ccc(OC)c(OC)c2)C2CCCCC2)cc1OC (centres undefined)
MIC99 [1]: 2.1 nM | fold change (FC) [2]: 4 | fractional inhibitory concentration index (FICI) [3]: 1.25

COc1ccc(CCNCCCC(C#N)(c2ccc(OC)c(OC)c2)C(C)C)cc1OC (centres undefined) [NORVERAPAMIL]
MIC99 [1]: 4.2 nM | fold change (FC) [2]: 2 | fractional inhibitory concentration index (FICI) [3]: 0.56
